In ChEMBL document CHEMBL1133396, “Construction of HIV Rev peptides containing peptide nucleic acid that bind HIV RRE IIB RNA” (Bioorg Med Chem Lett, 2000):
Peptide text beside a SMILES is read from it.

Target: Nucleic Acid
Assay: Dissociation constant against stem loop IIB region of RRE-response element RNA was reported
Type: nucleic-acid assay, Human immunodeficiency virus 1

| SMILES | Kd |
| --- | --- |
| C[C@H](NC(=O)[C@H](CCC(N)=O)NC(=O)[C@H](CCCNC(=N)N)NC(=O)[C@@H](NC(=O)CCC(=O)O)[C@@H](C)O)C(=O)N[C@@H](CCCNC(=N)N)C(=O)NCCN(CC(=O)N[C@@H](CC(N)=O)C(=O)N[C@@H](CCCNC(=N)N)C(=O)N[C@@H](CCCNC(=N)N)C(=O)N[C@@H](CCCNC(=N)N)C(=O)N[C@@H](CCCNC(=N)N)C(=O)N[C@@H](Cc1c[nH]c2ccccc12)C(=O)N[C@@H](CCCNC(=N)N)C(=O)N[C@@H](CCC(=O)O)C(=O)N[C@@H](CCCNC(=N)N)C(=O)N[C@@H](CCC(N)=O)C(=O)N[C@@H](CCCNC(=N)N)C(N)=O)C(=O)Cn1ccc(N)nc1=O | 420 nM |
| C[C@H](NC(=O)[C@H](CCC(N)=O)NC(=O)[C@H](CCCNC(=N)N)NC(=O)[C@@H](NC(=O)CCC(=O)O)[C@@H](C)O)C(=O)N[C@@H](CCCNC(=N)N)C(=O)N[C@@H](CCCNC(=N)N)C(=O)N[C@@H](CC(N)=O)C(=O)N[C@@H](CCCNC(=N)N)C(=O)N[C@@H](CCCNC(=N)N)C(=O)N[C@@H](CCCNC(=N)N)C(=O)NCCN(CC(=O)N[C@@H](Cc1c[nH]c2ccccc12)C(=O)N[C@@H](CCCNC(=N)N)C(=O)N[C@@H](CCC(=O)O)C(=O)N[C@@H](CCCNC(=N)N)C(=O)N[C@@H](CCC(N)=O)C(=O)N[C@@H](CCCNC(=N)N)C(N)=O)C(=O)Cn1ccc(N)nc1=O | 240 nM |
| C[C@H](NC(=O)[C@H](CCC(N)=O)NC(=O)[C@H](CCCNC(=N)N)NC(=O)[C@@H](NC(=O)CCC(=O)O)[C@@H](C)O)C(=O)N[C@@H](CCCNC(=N)N)C(=O)N[C@@H](CCCNC(=N)N)C(=O)N[C@@H](CC(N)=O)C(=O)N[C@@H](CCCNC(=N)N)C(=O)N[C@@H](CCCNC(=N)N)C(=O)N[C@@H](CCCNC(=N)N)C(=O)N[C@@H](CCCNC(=N)N)C(=O)N[C@@H](Cc1c[nH]c2ccccc12)C(=O)N[C@@H](CCCNC(=N)N)C(=O)N[C@@H](CCC(=O)O)C(=O)N[C@@H](CCCNC(=N)N)C(=O)N[C@@H](CCC(N)=O)C(=O)NCC(=O)NCC(N)=O (HELM PEPTIDE1{[O=C(O)CCC(=O)[*:2]].T.R.Q.A.R.R.N.R.R.R.R.W.R.E.R.Q.G.G.[am]}$$$$V2.0) | 42 nM |
| C[C@H](NC(=O)[C@H](CCC(N)=O)NC(=O)[C@H](CCCNC(=N)N)NC(=O)[C@@H](NC(=O)CCC(=O)O)[C@@H](C)O)C(=O)N[C@@H](CCCNC(=N)N)C(=O)N[C@@H](CCCNC(=N)N)C(=O)N[C@@H](CC(N)=O)C(=O)N[C@@H](CCCNC(=N)N)C(=O)N[C@@H](CCCNC(=N)N)C(=O)N[C@@H](CCCNC(=N)N)C(=O)N[C@@H](CCCNC(=N)N)C(=O)N[C@@H](Cc1c[nH]c2ccccc12)C(=O)N[C@@H](CCCNC(=N)N)C(=O)N[C@@H](CCC(=O)O)C(=O)N[C@@H](CCCNC(=N)N)C(=O)N[C@@H](CCC(N)=O)C(=O)N[C@@H](CCCNC(=N)N)C(=O)NCC(N)=O (HELM PEPTIDE1{[O=C(O)CCC(=O)[*:2]].T.R.Q.A.R.R.N.R.R.R.R.W.R.E.R.Q.R.G.[am]}$$$$V2.0) | 8 nM |
| C[C@H](NC(=O)[C@H](CCC(N)=O)NC(=O)[C@H](CCCNC(=N)N)NC(=O)[C@@H](NC(=O)CCC(=O)O)[C@@H](C)O)C(=O)N[C@@H](CCCNC(=N)N)C(=O)N[C@@H](CCCNC(=N)N)C(=O)N[C@@H](CC(N)=O)C(=O)N[C@@H](CCCNC(=N)N)C(=O)N[C@@H](CCCNC(=N)N)C(=O)N[C@@H](CCCNC(=N)N)C(=O)N[C@@H](CCCNC(=N)N)C(=O)N[C@@H](Cc1c[nH]c2ccccc12)C(=O)N[C@@H](CCCNC(=N)N)C(=O)N[C@@H](CCC(=O)O)C(=O)N[C@@H](CCCNC(=N)N)C(=O)N[C@@H](CCC(N)=O)C(=O)NCCN(CC(N)=O)C(=O)Cn1ccc(N)nc1=O (HELM PEPTIDE1{[O=C(O)CCC(=O)[*:2]].T.R.Q.A.R.R.N.R.R.R.R.W.R.E.R.Q.[NC(=O)CN(CCN[*:1])C(=O)Cn1ccc(N)nc1=O]}$$$$V2.0) | 21 nM |
| C[C@H](NC(=O)[C@H](CCC(N)=O)NC(=O)[C@H](CCCNC(=N)N)NC(=O)[C@@H](NC(=O)CCC(=O)O)[C@@H](C)O)C(=O)N[C@@H](CCCNC(=N)N)C(=O)N[C@@H](CCCNC(=N)N)C(=O)N[C@@H](CC(N)=O)C(=O)N[C@@H](CCCNC(=N)N)C(=O)N[C@@H](CCCNC(=N)N)C(=O)N[C@@H](CCCNC(=N)N)C(=O)N[C@@H](CCCNC(=N)N)C(=O)N[C@@H](Cc1c[nH]c2ccccc12)C(=O)N[C@@H](CCCNC(=N)N)C(=O)N[C@@H](CCC(=O)O)C(=O)N[C@@H](CCCNC(=N)N)C(=O)N[C@@H](CCC(N)=O)C(=O)NCCN(CC(N)=O)C(=O)Cn1cnc2c(N)ncnc21 (HELM PEPTIDE1{[O=C(O)CCC(=O)[*:2]].T.R.Q.A.R.R.N.R.R.R.R.W.R.E.R.Q.[NC(=O)CN(CCN[*:1])C(=O)Cn1cnc2c(N)ncnc21]}$$$$V2.0) | 10 nM |
